In ChEMBL document CHEMBL4732113, “Exploiting the tolerant region I of the non-nucleoside reverse transcriptase inhibitor (NNRTI) binding pocket. Part 2: Discovery of diarylpyrimidine derivatives as potent HIV-1 NNRTIs with high Fsp values and favorable drug-like properties” (Eur J Med Chem, 2021):
pEC50, pIC50: −log10 of the molar value.

How the values were obtained:
[1] = system: Human immunodeficiency virus 1; test: Antiviral activity against HIV1 harboring Y188L mutant infected in human MT4 cells assessed as reduction in virus-induced cytopathic effect by MTT assay; format: functional, organism-based; conditions: Human immunodeficiency virus 1, MT4
[2] = (§1) Cytotoxicity against human MT4 cells assessed as reduction in cell viability by MTT assay; format: cell-based; conditions: MT4 cells
[3] = Selectivity index, ratio of CC50 for human MT4 cells to EC50 for antiviral activity against HIV 3B infected in human MT4 cells; format: toxicity, cell-based; conditions: read-out: Ratio CC50/EC50
[4] = system: Human immunodeficiency virus 1; test: Antiviral activity against HIV1 harboring L100I mutant infected in human MT4 cells assessed as reduction in virus-induced cytopathic effect by MTT assay; format: functional, organism-based; conditions: Human immunodeficiency virus 1, MT4
[5] = system: Human immunodeficiency virus 1; test: Antiviral activity against HIV1 3B infected in human MT4 cells assessed as reduction in virus-induced cytopathic effect by MTT assay; format: functional, organism-based; conditions: Human immunodeficiency virus 1, 3B; for pEC50: read-out: EC50; for EC50: read-out: pEC50 (converted)
[6] = system: Human immunodeficiency virus 1; test: Antiviral activity against HIV1 harboring E138K mutant infected in human MT4 cells assessed as reduction in virus-induced cytopathic effect by MTT assay; format: functional, organism-based; conditions: Human immunodeficiency virus 1, MT4
[7] = biological target: Human immunodeficiency virus type 1 reverse transcriptase (Human immunodeficiency virus 1, UniProt Q72547); test: Inhibition of HIV1 reverse transcriptase assessed as reduction in biotin-dUTP incorporation into template incubated for 1 hr by ELISA
[8] = system: Human immunodeficiency virus 1; test: Antiviral activity against HIV1 RES056 harboring K103N/Y181C double mutant infected in human MT4 cells assessed as reduction in virus-induced cytopathic effect by MTT assay; format: functional, organism-based; conditions: for pEC50: Human immunodeficiency virus 1, RES056, MT4, read-out: EC50
[9] = system: Human immunodeficiency virus 1; test: Antiviral activity against HIV1 harboring K103N mutant infected in human MT4 cells assessed as reduction in virus-induced cytopathic effect by MTT assay; format: functional, organism-based; conditions: Human immunodeficiency virus 1, MT4
[10] = system: Human immunodeficiency virus 1; test: Antiviral activity against HIV1 harboring F227L/V106A mutant infected in human MT4 cells assessed as reduction in virus-induced cytopathic effect by MTT assay; format: functional, organism-based; conditions: Human immunodeficiency virus 1, MT4
[11] = system: Human immunodeficiency virus 1; test: Antiviral activity against HIV1 harboring Y181C mutant infected in human MT4 cells assessed as reduction in virus-induced cytopathic effect by MTT assay; format: functional, organism-based; conditions: Human immunodeficiency virus 1, MT4
[12] = Selectivity index, ratio of CC50 for human MT4 cells to EC50 for antiviral activity against HIV HIV1 RES056 harboring K103N/Y181C double mutant infected in human MT4 cells; format: toxicity, cell-based; conditions: read-out: Ratio CC50/EC50
MT4 = test: as §1; format: cell-based; conditions: mt4
[13] = system: Human immunodeficiency virus 1; test: Potency index, ratio of etravirine EC50 to test compound EC50 for antiviral activity against HIV1 3B infected in human MT4 cells assessed as reduction in virus-induced cytopathic effect by MTT assay; format: functional
[14] = system: Human immunodeficiency virus 1; test: Potency index, ratio of etravirine EC50 to test compound EC50 for antiviral activity against HIV1 harboring K103N mutant infected in human MT4 cells assessed as reduction in virus-induced cytopathic effect by MTT assay; format: functional

In the case of `C=CC(=O)N1CCN(Cc2ccc(Nc3nccc(Oc4c(C)cc(/C=C/C#N)cc4C)n3)cc2)CC1`, the pEC50 [1] was under 5.28, the CC50 [2] was 5210 nM and the selectivity ratio [3] was 909. For the same compound, the pEC50 [4] was 7.47, the pEC50 [5] was 8.24 and the EC50 [5] was 5.75 nM. For the same compound, the pEC50 [6] was 7.39, the pIC50 [7] was 7.15 and the pEC50 [8] was under 5.28. The pEC50 [9] was 8.00, the pEC50 [10] was 6.06 and the pEC50 [11] was 7.08. For the same compound, the selectivity ratio [12] was under 1.

With `Cc1cc(C#N)cc(C)c1Oc1ccnc(Nc2ccc(CN3CCCN(S(C)(=O)=O)CC3)cc2)n1` the CC50 [2] was 7850 nM, the selectivity ratio [3] was 100 and the pEC50 [5] was 7.10. It also gave a pEC50 [8] of under 5.11 and a selectivity ratio [12] of under 1.

In the case of `Cc1cc(/C=C/C#N)cc(C)c1Oc1ccnc(Nc2ccc(CN3CCCN(S(C)(=O)=O)CC3)cc2)n1`, the CC50 [2] was 17400 nM, the selectivity ratio [3] was 644 and the pEC50 [5] was 7.57. For the same compound, the pEC50 [8] was under 4.76 and the selectivity ratio [12] was under 1.

With `Cc1cc(C#N)cc(C)c1Oc1ccnc(Nc2ccc(CN3CCCN(S(=O)(=O)C4CC4)CC3)cc2)n1` the CC50 (MT4) was “Not Active”, the pEC50 [5] was 7.00 and the EC50 [5] was 100 nM. The pIC50 [7] was 6.70 and the EC50 ([8]; mt4) was “Not Active”.

For `CCS(=O)(=O)N1CCN(Cc2ccc(Nc3nccc(Oc4c(C)cc(/C=C/C#N)cc4C)n3)cc2)CC1`, the pEC50 [1] was 5.89, the CC50 [2] was 4600 nM and the selectivity ratio [3] was 810. The pEC50 [4] was 7.82, the pEC50 [5] was 8.24 and the EC50 [5] was 5.75 nM. For the same compound, the pEC50 [6] was 7.77, the pIC50 [7] was 7.28 and the pEC50 [8] was 6.01. The pEC50 [9] was 8.31, the pEC50 [10] was 6.70 and the pEC50 [11] was 7.34. The selectivity ratio [12] was 5.

For `C=CC(=O)N1CCN(Cc2ccc(Nc3nccc(Oc4c(C)cc(C#N)cc4C)n3)cc2)CC1`, the CC50 [2] was 7580 nM, the selectivity ratio [3] was 134 and the pEC50 [5] was 7.25. It also gave an EC50 [5] of 56.2 nM, a pIC50 [7] of 6.80 and a pEC50 [8] of under 5.12. For the same compound, the selectivity ratio [12] was under 1.

`Cc1cc(/C=C/C#N)cc(C)c1Oc1ccnc(Nc2ccc(CN3CCN(S(=O)(=O)N(C)C)CC3)cc2)n1` gave a pEC50 [1] of under 5.51, a CC50 [2] of 3070 nM and a selectivity ratio [3] of 677. For the same compound, the pEC50 [4] was 7.54, the pEC50 [5] was 8.35 and the pEC50 [6] was 7.47. The pEC50 [8] was under 5.51, the pEC50 [9] was 7.96 and the pEC50 [10] was under 5.51. The pEC50 [11] was 7.04 and the selectivity ratio [12] was under 1.

In the case of `Cc1cc(/C=C/C#N)cc(C)c1Oc1ccnc(Nc2ccc(CN3CCCN(S(=O)(=O)N(C)C)CC3)cc2)n1`, the CC50 [2] was 3900 nM, the selectivity ratio [3] was 182 and the pEC50 [5] was 7.68. It also gave an EC50 [5] of 20.9 nM, a pIC50 [7] of 7.03 and a pEC50 [8] of under 5.41. The selectivity ratio [12] was under 1.

`Cc1cc(C#N)cc(C)c1Oc1ccnc(Nc2ccc(CN3CCS(=O)(=O)CC3)cc2)n1` showed a CC50 [2] of 53200 nM, a selectivity ratio [3] of 3850 and a pEC50 [5] of 7.85. It also gave an EC50 [5] of 14.1 nM, a pIC50 [7] of 7.11 and a pEC50 [8] of under 4.27. For the same compound, the selectivity ratio [12] was under 1.

Work on `Cc1cc(/C=C/C#N)cc(C)c1Oc1ccnc(Nc2ccc(CN3CCSCC3)cc2)n1` yielded a pEC50 [1] of 5.37, a CC50 [2] of 14900 nM and a selectivity ratio [3] of 3160. It also gave a pEC50 [4] of 7.62, a pEC50 [5] of 8.33 and an EC50 [5] of 4.68 nM. For the same compound, the pEC50 [6] was 7.60, the pIC50 [7] was 7.21 and the pEC50 [8] was 5.45. For the same compound, the pEC50 [9] was 8.36, the pEC50 [10] was 6.55 and the pEC50 [11] was 7.00. It also gave a selectivity ratio [12] of 4.

For `Cc1cn([C@H]2C[C@H](N=[N+]=[N-])[C@@H](CO)O2)c(=O)[nH]c1=O` [ZIDOVUDINE], the pEC50 [1] was 8.07, the CC50 [2] was over 7480 nM and the selectivity ratio [3] was over 293. It also gave a pEC50 [4] of 8.15, a pEC50 [5] of 7.59 and a pEC50 [6] of 7.44. The pEC50 [8] was 7.55, the pEC50 [9] was 7.72 and the pEC50 [10] was 8.06. It also gave a pEC50 [11] of 7.89 and a selectivity ratio [12] of over 267.

For `Cc1cc(/C=C/C#N)cc(C)c1Oc1ccnc(Nc2ccc(CN3CCS(=O)(=O)CC3)cc2)n1`, the “Ratio EC50” value [13] was 2, the pEC50 [1] was 5.51 and the CC50 [2] was 18500 nM. For the same compound, the selectivity ratio [3] was 8640, the pEC50 [4] was 7.96 and the pEC50 [5] was 8.68. For the same compound, the EC50 [5] was 2.09 nM, the “Ratio EC50” value [14] was 1.7 and the pEC50 [6] was 8.12. The pIC50 [7] was 7.47, the pEC50 [8] was 5.97 and the pEC50 [9] was 8.72. For the same compound, the pEC50 [10] was 7.04, the pEC50 [11] was 7.48 and the selectivity ratio [12] was 17.

Compound `Cc1cc(C#N)cc(C)c1Oc1ccnc(Nc2ccc(CN3CCN(S(=O)(=O)C4CC4)CC3)cc2)n1` has a CC50 [2] of 4430 nM, a selectivity ratio [3] of 174 and a pEC50 [5] of 7.60. For the same compound, the pEC50 [8] was under 5.35 and the selectivity ratio [12] was under 1.
